Patent US11279733B2, “Peptide antibiotics” (priority 2017, dated 2022)
Converted amounts (≈) assume the structure as drawn. Like-named read-outs stand apart in the source and are kept apart here. Positions of bridges follow the written chain, without caps; N, C: chain ends. Non-standard residues stand in square brackets, D forms with d. Residues, ends and D or L forms follow the SMILES beside them. *: point of attachment. Isonicotinoyl(2-Ph) = O=C(c1ccnc(-c2ccccc2)c1)*; Decanoyl(3R-OH) = CCCCCCC[C@@H](O)CC(=O)*; dDab = NCC[C@@H](N)C(=O)O; Dab = NCC[C@H](N)C(=O)O

What was measured:
A. baumannii ATCC 19606 = conditions: ATCC 19606
Summary of the method: (§1)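 Mid-log cultures grown in Mueller Hinton broth at 37° C were tested by 2-fold broth microdilution at 5×10^5 CFU/mL final. Compounds were dissolved in water and tested over a final range of 32 to 0.015 μg/mL.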

A. baumannii GN_093 PmxR = conditions: GN 093 PmxR
Summary of the method: as §1

E. coli ATCC 25922 = conditions: ATCC 25922
Summary of the method: as §1

K. pneumoniae ATCC 13883 = conditions: ATCC 13883
Summary of the method: as §1

[1] = system: K. pneumoniae ATCC 700603, MDR; conditions: ATCC 700603
Summary of the method: as §1

[2] = system: K. pneumoniae ATCC BAA-2146, NDM-1 pos; conditions: ATCC BAA-2146
Summary of the method: as §1

[3] = system: K. pneumoniae GN_102 PmxR; conditions: GN 102 PmxR
Summary of the method: as §1

[4] = system: K. pneumoniae GN_106, PmxR; conditions: GN 106, PmxR
Summary of the method: as §1

P. aeruginosa ATCC 27853 = conditions: ATCC 27853
Summary of the method: as §1

[5] = system: P. aeruginosa GN_043, PmxR
Summary of the method: as §1

[6] = system: P. aeruginosa GN_105, PmxR; conditions: GN 105, PmxR
Summary of the method: as §1

[7] = system: S. aureus ATCC 25923, MSSA; conditions: ATCC 25923
Summary of the method: as §1

in vitro = conditions: human
Summary of the method: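 HK2 cells were seeded at 2000 per well in DMEM/F12 with 10% FBS and left to attach for 24 h at 37 °C, 5% CO2. They were then exposed for 24 h to 3-fold peptide dilutions starting from 600 μM solutions in quadruplicate. LDH release was read at 450 nm, and CC50 was fitted from dose-response curves.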

| SMILES | MIC A. baumannii ATCC 19606 (A. baumannii ATCC 19606) [µg/mL] | MIC A. baumannii GN_093 PmxR (A. baumannii GN_093 PmxR) [µg/mL] | MIC E. coli ATCC 25922 (E. coli ATCC 25922) [µg/mL] | MIC K. pneumoniae ATCC 13883 (K. pneumoniae ATCC 13883) [µg/mL] | MIC K. pneumoniae ATCC 700603, MDR [1] [µg/mL] | MIC K. pneumoniae ATCC BAA-2146, NDM-1 pos [2] [µg/mL] | MIC K. pneumoniae GN_102 PmxR [3] [µg/mL] | MIC K. pneumoniae GN_106, PmxR [4] [µg/mL] | MIC P. aeruginosa ATCC 27853 (P. aeruginosa ATCC 27853) [µg/mL] | MIC P. aeruginosa GN_043, PmxR ([5]; P. aeruginosa GN_043, PmxR) [µg/mL] | MIC P. aeruginosa GN_105, PmxR [6] [µg/mL] | MIC S. aureus ATCC 25923, MSSA [7] [µg/mL] | CC50 at 24 h (in vitro) [µM] | MIC P. aeruginosa GN_043, PmxR ([5]; polymyxin-resistant) [µg/mL] |
| --- | --- | --- | --- | --- | --- | --- | --- | --- | --- | --- | --- | --- | --- | --- |
| CC(C)C[C@@H]1NC(=O)[C@@H](Cc2ccccc2)NC(=O)[C@H](CCN)NC(=O)[C@@H](NC(=O)[C@@H](CCN)NC(=O)c2ccnc(-c3ccccc3)c2)CCNC(=O)[C@H]([C@@H](C)O)NC(=O)[C@H](CCN)NC(=O)[C@H](CCN)NC1=O [compound 6405, 3Phe4-PyCO-D-Dab-cyc[L-Dab-L-Dab-D-Phe-L-Leu-L-Dab-L-Dab-L-Thr]] ({Isonicotinoyl(2-Ph)}-[dDab][Dab][Dab][dF]L[Dab][Dab]T; lactam 2-C) | >64 | >32 | >64 | >64 | >64 | >64 | >32 | >32 | 8 (≈ 7.67 µM) | >32 | >32 | >32 | > 300 |  |
| CCCCCCC[C@@H](O)CC(=O)N[C@H](CCN)C(=O)N[C@H]1CCNC(=O)[C@H](CCCNC(=N)N)NC(=O)[C@H](CCN)NC(=O)[C@H](CCN)NC(=O)[C@H](CC(C)C)NC(=O)[C@@H](Cc2ccccc2)NC(=O)[C@H](CCN)NC1=O [compound 6508, 3(R)OH-nC9CO-D-Dab-cyc[L-Dab-L-Dab-D-Phe-L-Leu-L-Dab-L-Dab-L-Arg]] ({Decanoyl(3R-OH)}-[dDab][Dab][Dab][dF]L[Dab][Dab]R; lactam 2-C) | >64 | >32 | 16 (≈ 14.7 µM) | >64 | 16 (≈ 14.7 µM) | >64 | >32 | >32 | 2 (≈ 1.84 µM) |  | 32 (≈ 29.4 µM) | >32 | 142 | >32 |
| CCCCCCC[C@@H](O)CC(=O)N[C@H](CCN)C(=O)N[C@H]1CCNC(=O)[C@H](CO)NC(=O)[C@H](CCN)NC(=O)[C@H](CCN)NC(=O)[C@H](CC(C)C)NC(=O)[C@@H](Cc2ccccc2)NC(=O)[C@H](CCN)NC1=O [compound 6510, 3(R)OH-nC9CO-D-Dab-cyc[L-Dab-L-Dab-D-Phe-L-Leu-L-Dab-L-Dab-L-Ser]] ({Decanoyl(3R-OH)}-[dDab][Dab][Dab][dF]L[Dab][Dab]S; lactam 2-C) | >64 | >32 | 1 (≈ 0.982 µM) | 64 (≈ 62.9 µM) | 4 (≈ 3.93 µM) | 4 (≈ 3.93 µM) | >32 | >32 | 1 (≈ 0.982 µM) |  | 16 (≈ 15.7 µM) | >64 | 149 | 1 (≈ 0.982 µM) |
| CCCCCCC[C@@H](O)CC(=O)N[C@H](CCN)C(=O)N[C@H]1CCNC(=O)[C@H](Cc2ccc(O)cc2)NC(=O)[C@H](CCN)NC(=O)[C@H](CCN)NC(=O)[C@H](CC(C)C)NC(=O)[C@@H](Cc2ccccc2)NC(=O)[C@H](CCN)NC1=O [compound 6511, 3(R)OH-nC9CO-D-Dab-cyc[L-Dab-L-Dab-D-Phe-L-Leu-L-Dab-L-Dab-L-Tyr]] ({Decanoyl(3R-OH)}-[dDab][Dab][Dab][dF]L[Dab][Dab]Y; lactam 2-C) | 32 (≈ 29.2 µM) | 32 (≈ 29.2 µM) | 8 (≈ 7.31 µM) | 8 (≈ 7.31 µM) | 4 (≈ 3.66 µM) | 2 (≈ 1.83 µM) | 8 (≈ 7.31 µM) | 8 (≈ 7.31 µM) | 2 (≈ 1.83 µM) |  | 4 (≈ 3.66 µM) | 32 (≈ 29.2 µM) | 76 | 1 (≈ 0.914 µM) |
| CCCCCCC[C@@H](O)CC(=O)N[C@H](CCN)C(=O)N[C@H]1CCNC(=O)[C@H](CCC(=O)O)NC(=O)[C@H](CCN)NC(=O)[C@H](CCN)NC(=O)[C@H](CC(C)C)NC(=O)[C@@H](Cc2ccccc2)NC(=O)[C@H](CCN)NC1=O [compound 6512, 3(R)OH-nC9CO-D-Dab-cyc[L-Dab-L-Dab-D-Phe-L-Leu-L-Dab-L-Dab-L-Glu]] ({Decanoyl(3R-OH)}-[dDab][Dab][Dab][dF]L[Dab][Dab]E; lactam 2-C) | >64 | >32 | >64 | >64 | 64 (≈ 60.4 µM) | >64 | >32 | >32 | 8 (≈ 7.54 µM) |  | >32 | >32 | > 300 | >32 |
| CCCCCCC[C@@H](O)CC(=O)N[C@H](CCN)C(=O)N[C@H]1CCNC(=O)[C@H](CC(=O)O)NC(=O)[C@H](CCN)NC(=O)[C@H](CCN)NC(=O)[C@H](CC(C)C)NC(=O)[C@@H](Cc2ccccc2)NC(=O)[C@H](CCN)NC1=O [compound 6513, 3(R)OH-nC9CO-D-Dab-cyc[L-Dab-L-Dab-D-Phe-L-Leu-L-Dab-L-Dab-L-Asp]] ({Decanoyl(3R-OH)}-[dDab][Dab][Dab][dF]L[Dab][Dab]D; lactam 2-C) | >64 | >32 | >64 | >64 | 64 (≈ 61.2 µM) | >64 | >32 | >32 | 4 (≈ 3.82 µM) |  | >32 | >32 | > 300 | 8 (≈ 7.65 µM) |
